Data reported in patent publication US20060216258A1, “Water-in-silicone emulsion compositions” (priority 2005, published 2006).

Assay: human repetitive patch test (cumulative irritation)
Settings: undiluted product under semi-occlusive patches daily over twelve-day test period, about 100 μl per patch; SLS value is average of two studies
Experimental: The technique involves application of undiluted test products under semi-occlusive patches daily over a twelve-day test period. Approximately 100 μl of test product is applied to each non-woven cotton pad and secured to the skin with porous, hypoallergenic tape. An undosed patch served as a negative control, while a 1.0% sodium lauryl sulfate (SLS) patch served as the positive control. Each day, patches were removed and test sites professionally graded for irritation prior to re-patching.

CCCCCCCCCCCCOS(=O)(=O)[O-].[Na+] [SLS, sodium lauryl sulfate]
Cumulative Irritation Score: 514
